Test results from patent US6677302B2, “Compositions and methods for the treatment of viral disorders” (The Trustees of Boston University, priority 1996, dated 2004).

Experiments:
Myeloid Leukemia (HL60) = test: MIC on cell proliferation, 7 days in culture; format: cell-based, human
Description: (§1) The ability of arginine butyrate to induce differentiation has been evaluated and is measured by inhibition of growth, in some of the neoplastic cell types previously reported to be sensitive to (sodium) butyric acid, and found arginine butyrate to be as potent as butyric acid. We have also extended that work to additional cell types and found Arginine Butyrate to induce differentiation in these new cell types. Table 1 lists the cell types tested and the minimum inhibitory concentration (MIC) of sodium butyrate (NaB) and arginine butyrate (ArgB) on these cell lines. The MIC is the lowest dose that prevents all growth over the 7 days that the cells are maintained in culture, that is the minimum dose that prevents an increase in cell number. […] The […] of ArgB and NaB were equivalent on all cell lines tested.

[1] = test system: Colonic Adenocarcinoma (HT29); test: MIC on cell proliferation, 7 days in culture; format: cell-based, human
Description: as §1

Glioblastoma Multiforme = test: MIC on cell proliferation, 7 days in culture; format: cell-based, human
Description: as §1

Osteosarcoma (HOS) = test: MIC on cell proliferation, 7 days in culture; format: cell-based, human
Description: as §1

Gastric Carcinoma (AGS) = test: MIC on cell proliferation, 7 days in culture; format: cell-based, human
Description: as §1

Erythroleukemia (K562) = test: MIC on cell proliferation, 7 days in culture; format: cell-based, human
Description: as §1

Rhabdomyosarcoma = test: MIC on cell proliferation, 7 days in culture; format: cell-based, human
Description: as §1

Choriocarcinoma (JAR) = test: MIC on cell proliferation, 7 days in culture; format: cell-based, human
Description: as §1

[2] = Stability testing of arginine butyrate solution; format: physicochemical; conditions: solution for injection
Source text: (§2) Butyric acid is a short chain fatty acid present in foods such as dairy products. Arginine is an amino acid which is commonly used in hyperalimentation solutions in hospitals throughout the country. Butyric acid was obtained from Aldrich, catalog number W-212. L-Arginine is anhydrous. Arginine was combined with butyric acid, pH 5.0-5.5, in sterile, non-pyrogenic water for injection to neutralize the fatty acid. The solution was filtered through a Millipore System at a final concentration for injection of 100 mg/ml or 25 mg/ml. Each lot was pyrogen tested and tested for sterility and purity. […] Since 10% arginine butyrate solution is hypertonic (100 mg/ml), it must be infused through a long or deep IV access to avoid peripheral venous irritation. Arginine butyrate was infused via an infusion pump. European pharmacokinetic studies of arginine butyrate given as a “slow” and 90 minute bolus of 500 mls of a 5% solution (2.5 g/M in two normal volunteers, and found a 15 minute elimination period. Plasma levels from patients with hemoglobinopathies have shown that butyric acid disappears within 5 to 15 minutes after an infusion of up to 2,000 mg/kg/day.

[3] = test system: human malignant cell lines from breast, colon, lung, prostate, ovarian and lymphoid sources; test: Cytotoxicity as single agent, cell death at 72 hours; format: cell-based; conditions: all concentrations tested
[4] = test system: HLA antigens in K562 cells; conditions: one hour of exposure to 1 mM
Description: HLA Induction: Arginine butyrate was tested for its ability to induce expression of HLA antigens in K562 cells, a human erythroleukemia cell line.

[5] = test system: SY5Y neuroblastoma cell line; test: Induction of apoptosis / DNA fragmentation
[6] = test system: HIV p24 in co-cultures of human PBMC and Ci11; test: HIV p24 production, radio-immuno assay; format: cell-based; conditions: 72 hours post-cultivation; FIG. 13
Source text: The effect of arginine butyrate on HIV p24 production could be easily studied in co-cultures of human PBMC and Ci11, an HIV infected cell line. […] Despite these encouraging results with a more direct assay than those published previously, the potential risks to HIV+ patients of treatment with arginine butyrate have not been evaluated as these patients were excluded from the protocol (FIG. 13). HIV p24 levels assessed by radio-immuno assay.

[7] = test system: EBV+ and EBV− cell lines (X50-7, Akata, HPB-ALL, Nalm-6); test: Growth of EBV+ and EBV− cell lines; format: cell-based, human
Source text: In some experiments sodium was used instead of arginine to neutralize butyric acid. […] Cell lines used were X50-7, a latent EBV+ B-cell lymphoma; Akata, a producer EBV+ Burkitt's lymphoma; HPB-ALL, a T-cell line; and Nalm-6, an EBV− B-cell line. Growth curves for X50-7 cells in different concentrations of sodium butyrate are shown in FIG. 8b and the growth curves for HPB-ALL cells in different concentrations of sodium butyrate are shown in FIG. 8c.

[8] = European pharmacokinetic studies; 500 mls of a 5% solution; two normal volunteers; cited from earlier work
[9] = Clinical pharmacokinetics of butyrate infusion; format: in vivo, human; conditions: patients with β-hemoglobinopathies
Description: Clinical experience with butyrates have been performed in children with acute myelogenous leukemia in Israel, and in children with neuroblastoma (K. Prasad, Life Sci. 27:1351-58, 1980). […] Eleven pediatric patients and twelve adults with β-hemoglobinopathies were treated with IV arginine butyrate at a starting dose of 500 mg/kg/day for 2-7 weeks. If no side effects were noted, the rate was increased by 250 mg/kg/day to a final rate of 1500 mg/kg/day in 4 patients, and 2000 mg/kg/day in 2 patients. […] This rise in BUN returned to normal within 12 hours of discontinuation of drug, and is thought to be secondary to effect of arginine upon ureagenesis. […] Peak serum levels of butyrate ranged between 0.04-0.05 mM, and butyrate was not detectable 15 minutes after infusion was discontinued. Plasma arginine levels were also rapidly cleared, with a T1/2 of 15 minutes, and baseline arginine levels were reached within 12 hours after discontinuation of infusion.
as §2
In vitro, peaks induction of EBV-TK plateaus at serum level of around 1 mM. […] Therefore, dose levels up to 2,000 mg/kg/day, were evaluated in an attempt to reach serum levels of 1 mM. Treatment cycles were of 4 week duration, with 3 weeks on treatment and one week off. Patients were given the standard dose of GCV throughout each 21 day course of arginine butyrate, starting, however, on day 0. Arginine butyrate was given by continuous IV infusion at 500 mg/kg/day for 2 days, at 1,000 mg/kg/day for 2 days, at 1,500 mg/kg/day for 2 days, and thereafter at 2,000 mg/kg/day, or as tolerated, for the rest of the 21 day course. Cycle 2 was begun on Day 29. […]

In the case of arginine butyrate, the MIC (Myeloid Leukemia (HL60)) is reported as 78 µM, the MIC [1] is reported as 2,000 μM and the MIC (Glioblastoma Multiforme) is reported as 1,000 μM. The MIC (Osteosarcoma (HOS)) was 312 µM, the MIC (Gastric Carcinoma (AGS)) was 2,000 μM and the MIC (Erythroleukemia (K562)) was 1,250 μM. For the same substance, the MIC (Rhabdomyosarcoma) was 156 µM, the MIC (Choriocarcinoma (JAR)) was 156 µM and the “stability in glass containers” value [2] was “up to 404 days”. For the same substance, the “concentrations at which cell death at 72 hours was seen” value [3] was 0.1 to 5.0 mM, the HLA expression increase [4] was “more than 20 fold” and the apoptosis ([5]; FIG. 1c) was “induces apoptosis”. The DNA fragmentation ([5]; both 0.5 and 1.0 mM) was “significant DNA fragmentation was found”, the “HIV p24 production” value [6] was “significant decrease in p24 production” and the “effect on cell growth” value ([7]; 1 mM) was “cytostatic to some cell lines and permitted normal cell growth in others”. The “effect on cell growth” value ([7]; 2 mM and 3 mM) was “cytocidal to most EBV+ and EBV− cell lines”, the elimination period [8] was 15 min and the “Plasma arginine T1/2” value ([9]; IV) was 15 min. The “time after discontinuation of infusion at which butyrate was not detectable” value ([9]; IV) was 15 min, the “time to baseline arginine levels after discontinuation of infusion” value ([9]; IV) was at most 12 h and the “Peak serum levels of butyrate” value ([9]; IV 500 up to 2000 mg/kg/day) was 0.04 to 0.05 mM.
